Experiments:
[1] = target: recombinant human PIM1 (Homo sapiens (Human), UniProt P11309); experiment: PIM-1 kinase activity in cell-free in vitro assay; assay type: biochemical; conditions: cell-free assay; for inhibition at 0.5 µM: 500 nM compound, read-out: PIM-1: % inh 500 nM
[2] = tested on: MV-4-11; experiment: Cell proliferation modulatory activity, MV-4-11; assay type: cell-based; conditions: Homo sapiens, MV4-11; MV-4-11 cells
[3] = target: recombinant human CK2 (Homo sapiens (Human), UniProt P68400); experiment: CK2 assay (cell-free, 33P-ATP filter plate); assay type: biochemical; conditions: 500 nM compound, cell-free assay; read-out: CK2: % inh 500 nM
[4] = tested on: HCT-116 human colorectal carcinoma cells; experiment: Cell-proliferation assay using Alamar Blue dye; assay type: cell-based; conditions: Homo sapiens, HCT-116, second HCT-116 column (c8); read-out: HCT-116 (uM) cell proliferation modulatory activity;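 note: cells exposed to compound for about 4 days, then Alamar Blue added and dye fluorescence read after about 4 h, compared with medium-only control wells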
[5] = tested on: K-562; experiment: Cell proliferation modulatory activity, K-562; assay type: cell-based; conditions: Homo sapiens, K562; K-562 cells

Chain of recombinant human PIM1 (P11309 whole entry): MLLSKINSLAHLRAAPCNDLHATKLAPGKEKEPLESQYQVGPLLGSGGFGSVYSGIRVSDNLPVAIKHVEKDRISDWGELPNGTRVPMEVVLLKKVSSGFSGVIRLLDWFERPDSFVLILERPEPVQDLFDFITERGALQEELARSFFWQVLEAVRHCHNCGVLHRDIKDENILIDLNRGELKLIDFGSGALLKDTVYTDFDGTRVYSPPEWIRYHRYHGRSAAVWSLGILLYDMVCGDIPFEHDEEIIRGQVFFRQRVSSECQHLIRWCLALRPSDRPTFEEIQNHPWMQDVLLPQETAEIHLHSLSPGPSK
Chain of recombinant human CK2 (P68400 whole entry): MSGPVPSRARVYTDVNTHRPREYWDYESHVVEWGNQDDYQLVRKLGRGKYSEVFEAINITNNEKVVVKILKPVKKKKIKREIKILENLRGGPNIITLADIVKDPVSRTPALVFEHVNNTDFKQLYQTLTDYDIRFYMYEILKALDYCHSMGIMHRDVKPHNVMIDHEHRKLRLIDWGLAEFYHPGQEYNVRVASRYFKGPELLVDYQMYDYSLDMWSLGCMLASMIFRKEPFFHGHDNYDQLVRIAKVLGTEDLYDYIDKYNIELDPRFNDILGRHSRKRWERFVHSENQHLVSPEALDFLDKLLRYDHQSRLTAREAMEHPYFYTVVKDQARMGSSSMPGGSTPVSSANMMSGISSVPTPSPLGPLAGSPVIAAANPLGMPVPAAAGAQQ
Chain of recombinant human CK2 (P67870 whole entry partner): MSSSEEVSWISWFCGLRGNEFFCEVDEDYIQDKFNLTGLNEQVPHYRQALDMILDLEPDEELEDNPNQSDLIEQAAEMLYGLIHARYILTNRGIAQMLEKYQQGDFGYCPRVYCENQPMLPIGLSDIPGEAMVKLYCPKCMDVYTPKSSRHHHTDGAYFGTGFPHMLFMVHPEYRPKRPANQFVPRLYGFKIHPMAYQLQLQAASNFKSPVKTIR

SMILES	inhibition at 0.5 µM [1] [%]	IC50 [2] [µM]	inhibition at 0.5 µM [3] [%]	IC50 [4] [µM]	IC50 [5] [µM]	IC50 [1] [µM]
N#Cc1ccc2c(c1)nc(NCc1ccccn1)c1ccsc12	2.17	> 10	100	> 10	> 10	
N#Cc1ccc2c(c1)nc(NCCc1ccccn1)c1ccsc12	10.6	> 10	5.18	> 10	> 10	
CN(CCc1ccccn1)c1nc2cc(C#N)ccc2c2sccc12	19.4	> 10	44.5	> 10	> 10	
N#Cc1ccc2c(c1)nc(N1CCC(c3cccnc3)C1)c1ccsc12 (stereo not shown)	-11.2	> 10	0.642	> 10	> 10	
N#Cc1ccc2c(c1)nc(N1CCN(c3ccccn3)CC1)c1ccsc12	11	> 10	7.66	> 10	> 10	
N#Cc1ccc2c(c1)nc(N1CCNC(=O)C1)c1ccsc12	8.04	> 10	-4.51	> 10	> 10	
CC(=O)NC1CCN(c2nc3cc(C#N)ccc3c3sccc23)C1 (stereo not shown)	5.75	> 10	-8.88	> 10	> 10	
CC(=O)N1CCN(c2nc3cc(C#N)ccc3c3sccc23)CC1	7.13	> 10	3.48	> 10	> 10	
N#Cc1ccc2c(c1)nc(N1CCC[C@H]1C(N)=O)c1ccsc12	12.2	> 10	4.42	> 10	> 10	
CN1CCN(c2nc3cc(C#N)ccc3c3sccc23)CC1	15.8	4.79	24.3	8.77	> 10	
CN1CC(Nc2nc3cc(C#N)ccc3c3sccc23)C1	0.859	0.882	20.6	0.437	> 10	
CC(C)(C)OC(=O)N1CCC(Nc2nc3cc(C#N)ccc3c3sccc23)CC1	2.44	> 10	1.98	> 10	> 10	
N#Cc1ccc2c(c1)nc(NC1CCNCC1)c1ccsc12	70.1	1.26	27.1	3.15	> 10	0.416
CC(C)(C)OC(=O)NC1CCN(c2nc3cc(C#N)ccc3c3sccc23)C1 (stereo not shown)	10	> 10	11	> 10	> 10	
N#Cc1ccc2c(c1)nc(N1CCC(N)C1)c1ccsc12 (stereo not shown)	9.1	> 10	-2.47	> 10	> 10	
CN1CCC(Nc2nc3cc(C#N)ccc3c3sccc23)CC1	59.1	7.52	-8.22	3.44	> 10	1.03
CC(C)(C)OC(=O)N1CCN(c2nc3cc(C#N)ccc3c3sccc23)CC1	-30.9	> 10	-35	> 10	> 10	
N#Cc1ccc2c(c1)nc(N1CCNCC1)c1ccsc12	7.88	9.33	-27.3	4.09	> 10	
CC(C)(C)OC(=O)NCCCNc1nc2cc(C#N)ccc2c2sccc12	-30.8	> 10	-11.5	> 10	> 10	
N#Cc1ccc2c(c1)nc(NCCCN)c1ccsc12	76.6	> 10	61.4	2.51	> 10	0.129
CC(C)(C)OC(=O)N1CCCC1CNc1nc2cc(C#N)ccc2c2sccc12 (stereo not shown)	-14.7	> 10	-35.2	> 10	> 10	
N#Cc1ccc2c(c1)nc(NCC1CCCN1)c1ccsc12 (stereo not shown)	14.1	2.44	-23.8	2.73	> 10	
CC(C)(C)OC(=O)N1CCCC1CCNc1nc2cc(C#N)ccc2c2sccc12 (stereo not shown)	-13	> 10	-22.4	> 10	> 10	
N#Cc1ccc2c(c1)nc(NCCC1CCCN1)c1ccsc12 (stereo not shown)	36.2	2.82	37.1	1.87	> 10	

SMILES	inhibition at 0.5 µM [1] [%]	IC50 [2] [µM]	inhibition at 0.5 µM [3] [%]	IC50 [4] [µM]	IC50 [5] [µM]	IC50 [1] [µM]
CN(c1nc2cc(C#N)ccc2c2sccc12)C(C1CC1)C1CC1	-19	> 10	-17.1	> 10	> 10	
CN(C)CCCN(C)c1nc2cc(-c3nnn[nH]3)ccc2c2sccc12	70.5	> 10	60.1	> 10	> 10	0.221
CNC(=O)c1ccc2c(c1)nc(NCCN(C)C)c1ccsc12	5.73	0.535	8.24	> 10	> 10	
CN(C)CCNc1nc2cc(C(=O)NC3CC3)ccc2c2sccc12	13.7	> 10	1.39	2.34	1.89	
CN(C)CCNc1nc2cc(C(=O)N(C)C)ccc2c2sccc12	-3.56	0.999	11.8	> 10	> 10	
CN(C)CCNc1nc2cc(C(N)=O)ccc2c2sccc12	34	0.402	15.6	4.29	0.198	
CN1CCC(Nc2nc3cc(-c4nnn[nH]4)ccc3c3sccc23)CC1	83.9	> 10	1.28	> 10	> 10	0.161
CN1CCCC(Nc2nc3cc(-c4nnn[nH]4)ccc3c3sccc23)C1 (stereo not shown)	90.9	0.658	31.4	> 10	> 10	0.109
CC1(C)CC(Nc2nc3cc(-c4nnn[nH]4)ccc3c3sccc23)CC(C)(C)N1	32.7	> 10	-5.33	> 10	> 10	
CCN1CCCC1CNc1nc2cc(-c3nnn[nH]3)ccc2c2sccc12 (stereo not shown)	103	0.174	55.7	0.397	0.175	0.098
NC1CCN(c2nc3cc(-c4nnn[nH]4)ccc3c3sccc23)C1 (stereo not shown)	63.6	1.15	30.8	> 10	> 10	0.489
c1cc2c(N3CCC(N4CCCC4)CC3)nc3cc(-c4nnn[nH]4)ccc3c2s1	90	1.07	38.6	> 10	> 10	0.119
c1ccc(CNc2nc3cc(-c4nnn[nH]4)ccc3c3sccc23)nc1	16.8	1	27.9	> 10	> 10	
COC(=O)c1ccc2c(c1)nc(NCCN(C)C)c1ccsc12	-6.89	0.73	-0.704	1.52	1.09	
CN(C)CCNc1nc2cc(C#N)ccc2c2sc(Br)cc12	12.1	0.588	-7.27	0.704	0.719	
CN(C)CCNc1nc2cc(-c3nnn[nH]3)ccc2c2sc(Br)cc12	60.7	> 10	24.8	> 10	> 10	0.656
CN1CCN(c2nc3cc(-c4nnn[nH]4)ccc3c3sccc23)CC1	81.3	> 10	7.3	> 10	> 10	0.178
CN(C)CCNc1nc2cc(-c3nnc[nH]3)ccc2c2sccc12	-2.14	6.04	-76.9	> 10	> 10	
c1cc2c(NC3CCNCC3)nc3cc(-c4nnn[nH]4)ccc3c2s1	85.7	> 10	-21.2	> 10	> 10	0.078
CCCNc1nc2cc(-c3nnn[nH]3)ccc2c2sccc12	59.1	> 10	31.1	> 10	> 10	> 1.1
CC(C)(C)OC(=O)N1CCCC1CNc1nc2cc(-c3nnn[nH]3)ccc2c2sccc12 (stereo not shown)	35	> 10	27	> 10	> 10	
c1cc2c(NCCN3CCCCC3)nc3cc(-c4nnn[nH]4)ccc3c2s1	81.1	> 10	37.1	> 10	> 10	0.313
c1cc2c(NCC3CCCN3)nc3cc(-c4nnn[nH]4)ccc3c2s1 (stereo not shown)	93.4	> 10	86.1	> 10	> 10	0.046
